Assay results published in patent US20260216348A1, “IRAK DEGRADATION AGENT AND USE THEREOF” (Increland, priority 2023, published 2026).

What was measured:
[1] = tested on: CIA-induced rheumatoid arthritis model; assay: CIA-induced rheumatoid arthritis model; assay type: in vivo, DBA/1J mice; settings: BID, Model 12.31 ± 2.97, Mean ± SD, n = 7
Description: 1. DBA/1J mice, male, SPF grade, were pre-acclimatized in the animal facility for one week. 2. On day 1, for the primary immunization, 2 mg/mL bovine type II collagen was mixed thoroughly with an equal volume of complete Freund's adjuvant on ice using a homogenizer until fully emulsified. 100 μL of the collagen emulsion (final concentration 1 mg/mL) was intradermally injected at 2 cm from the base of the mouse tail. Medical iodophor was used to disinfect the tail after injection to prevent tail necrosis, which was conducted for 3 consecutive days. 3. On day 21, bovine type II collagen solution was thoroughly mixed and emulsified with an equal volume of Freund's incomplete adjuvant, using the same method as the primary immunization. 4. On day 26, LPS was administered intraperitoneally at a dose of 50 μg/animal to induce disease. 5. On day 28, the affected mice were scored according to Table 33 and the diameter of their ankle joints was measured. Mice were randomly grouped and treated with medication based on their scores and ankle diameter.

[2] = tested on: DSS-induced enteritis model; assay: DSS-induced enteritis (colitis) model; assay type: in vivo, mice; settings: 100 mpk, po, BID; Model 10.33 ± 1.11; Mean ± SD, n = 7
From the text: The experimental mice were pre-acclimatized in the animal facility for one week; at the beginning of the experiment, the mice were given medication intragastrically daily according to their body weight. After the completion of intragastric administration in each group, mice had direct access to water bottles for free drinking. The blank group received normal water, while the other groups received pre-prepared DSS water. Each afternoon, the mice's abdomens were massaged to stimulate defecation, and one fecal pellet was collected onto a white porcelain plate. Fecal consistency was judged and recorded according to Table 30. The fecal occult blood qualitative test kit (Yuanye Biotechnology, #R24187-300T) was used to test for occult blood in feces and the results were interpreted according to Table 31.

IMQ psoriasis model = assay: IMQ (imiquimod)-induced psoriasis model; assay type: in vivo, BALB/c mice; settings: 100 mg/kg, BID, Mean ± SD, n = 7
Description: Male BALB/c mice, aged 6-8 weeks, were randomly divided into 9 groups after 1 week of acclimatization: blank control group, imiquimod model group (IMQ group, corresponding to the model groups in FIGS. 1 and 2), clobetasol propionate cream group (CLO group), TYKI (BMS-986165) group, IRAK4 protein degrader KT-474 (from patent WO2020113233) group (100 mg/kg), and the compound of the present disclosure (at an appropriate dose), with 6-7 mice in each group. One day before modeling, the hair on the backs of the mice was removed with depilatory cream, with a depilated area of 2×2 cm^2. On the day of modeling, IMQ cream was used for modeling, and the corresponding drugs were administered intragastrically for treatment. The compound of the present disclosure (at an appropriate dose) was administered intragastrically once daily, and IMQ cream was applied to the hairless area on the back and left ear of mice 2 h after the first administration. […] The blank group and the IMQ group were administered with vehicle intragastrically twice daily (in the morning and evening), with an 8-h interval between the two intragastric administrations. At 2 h after the first intragastric administration, vaseline and IMQ cream were applied topically to the depilated back and ears of the mice, respectively. The dosage of IMQ cream administered to the depilated area on the back and the left ear was 80 mg and 10 mg, respectively, and the mice in each group were administered the cream for 5 consecutive days.
Reference was made to the Psoriasis Area and Severity Index (PASI) scoring criteria. The psoriasis, erythema, and thickness of skin lesions on the back were scored from 0 to 4 every morning from day 1 of modeling, with the scoring criteria as shown in Table 28. The 3 were added up to obtain a total score, i.e., a total PASI score. The ear thickness of the left ear of the mouse was measured using a digital vernier caliper three times every morning from day 1 of modeling, to obtain a mean value.

Structure (SMILES)	DAI Score d 42 ([1]; 30 mg/kg)	DAI Score d 8 [2]	DAI Score d 42 ([1]; 100 mg/kg)	PASI Score d 6 (IMQ psoriasis model; Model 8.85 ± 1.66)	ΔSkin Thickness Change (μm) d 6 (IMQ psoriasis model; Model 80.95 ± 6.16) [μm]
C[C@@H]1CCN(C(=O)CC#N)C[C@@H]1N(C)c1ncnc2[nH]ccc12 [tofacitinib, Tofacitinib, reference compound]	10.67 ± 3.13				
Cn1c(=O)n(C2CCC(=O)NC2=O)c2cccc(C#CCOC3CCN(C[C@H]4CC[C@H](n5cc(NC(=O)c6cnn7ccc(N8C[C@H]9C[C@@H]8CO9)nc67)c(C(F)F)n5)CC4)CC3)c21 (some centres unmarked) [KT474, reference compound]		5.71 ± 1.28	11.63 ± 2.55	6.93 ± 2.36	31.90 ± 9.90
